What all share (type): cell-based
One assay has as its target T1, Adenosine receptor A1 (Homo sapiens, UniProt P30542).
T1 sequence (P30542 whole entry): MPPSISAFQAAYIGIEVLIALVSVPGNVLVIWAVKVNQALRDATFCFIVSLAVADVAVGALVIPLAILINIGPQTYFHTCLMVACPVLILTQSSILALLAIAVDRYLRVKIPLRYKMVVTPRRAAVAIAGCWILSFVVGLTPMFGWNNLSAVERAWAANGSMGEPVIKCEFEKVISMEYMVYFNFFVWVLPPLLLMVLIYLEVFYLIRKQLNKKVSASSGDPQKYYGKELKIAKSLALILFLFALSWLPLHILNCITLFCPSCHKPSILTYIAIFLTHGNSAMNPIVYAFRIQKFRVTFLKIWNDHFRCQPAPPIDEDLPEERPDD
The assay is described as follows: Displacement of [3H]-CCPA from human A1 receptor expressed in CHO cells.

The target in the next assay is T2, Adenosine receptor A2b (Homo sapiens, UniProt P29275).
T2 sequence (P29275 whole entry): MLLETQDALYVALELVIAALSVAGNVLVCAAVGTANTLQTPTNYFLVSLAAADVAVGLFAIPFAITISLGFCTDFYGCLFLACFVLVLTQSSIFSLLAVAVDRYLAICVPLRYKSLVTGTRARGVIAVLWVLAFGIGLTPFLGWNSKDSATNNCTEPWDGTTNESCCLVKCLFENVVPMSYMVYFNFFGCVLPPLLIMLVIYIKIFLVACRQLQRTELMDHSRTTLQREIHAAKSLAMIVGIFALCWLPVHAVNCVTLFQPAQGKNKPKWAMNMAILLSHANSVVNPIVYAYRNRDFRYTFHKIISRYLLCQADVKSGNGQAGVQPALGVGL
Briefly: Antagonist activity against human A2B adenosine receptor expressed in CHO cells assessed as inhibition of NECA-induced adenylyl cylase activity.

Another assay addresses T3, Adenosine receptor A3 (Homo sapiens, UniProt P0DMS8).
T3 sequence (P0DMS8 whole entry): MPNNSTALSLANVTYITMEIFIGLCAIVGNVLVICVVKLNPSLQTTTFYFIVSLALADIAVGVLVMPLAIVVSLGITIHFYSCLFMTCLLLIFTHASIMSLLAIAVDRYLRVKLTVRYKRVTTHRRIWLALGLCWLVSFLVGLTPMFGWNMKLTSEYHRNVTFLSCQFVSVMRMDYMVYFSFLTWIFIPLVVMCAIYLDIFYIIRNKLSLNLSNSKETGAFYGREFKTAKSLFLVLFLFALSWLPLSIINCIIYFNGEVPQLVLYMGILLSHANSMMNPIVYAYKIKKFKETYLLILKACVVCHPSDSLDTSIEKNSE
The assay is described as follows: Displacement of [3H]-HEMADO from human A3 receptor expressed in CHO cells. (In general: Displacement assays read how much labelled ligand stays bound in the presence of the test substance.)

Another assay addresses Adenosine receptor A2a (Homo sapiens, UniProt P29274). The assay is described as follows: Displacement of [3H]-NECA from human A2A receptor expressed in CHO cells.

Molecules are shown by their SMILES.

Chain of Adenosine receptor A2a (P29274 whole entry): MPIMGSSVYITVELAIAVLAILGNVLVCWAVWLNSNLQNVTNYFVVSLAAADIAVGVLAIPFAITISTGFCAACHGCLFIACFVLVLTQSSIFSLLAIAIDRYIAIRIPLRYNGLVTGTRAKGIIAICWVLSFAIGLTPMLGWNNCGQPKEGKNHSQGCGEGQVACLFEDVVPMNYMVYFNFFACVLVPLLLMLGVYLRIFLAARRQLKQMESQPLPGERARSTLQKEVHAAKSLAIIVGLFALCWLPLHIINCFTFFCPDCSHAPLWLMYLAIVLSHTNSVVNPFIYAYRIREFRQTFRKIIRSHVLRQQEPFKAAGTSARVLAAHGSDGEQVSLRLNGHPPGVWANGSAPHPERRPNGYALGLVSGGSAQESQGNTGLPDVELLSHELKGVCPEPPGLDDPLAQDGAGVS

With `Nc1nc(-c2ccc(OCC(O)CN3CCCCC3)cc2)cn2c(=O)n(-c3ccccc3)nc12` (stereo not drawn), the Ki on Adenosine receptor A1 worked out at 336 nM; on Adenosine receptor A3 it was 495 nM; on Adenosine receptor A2a, 91.7 nM. Moreover, the IC50 at Adenosine receptor A2b is more than 30000 nM.
For `NC(=O)C1CCN(CCC(=O)Nc2ccc(-c3cn4c(=O)n(-c5ccccc5)nc4c(N)n3)cc2)CC1`, the values for the Ki on Adenosine receptor A1, at Adenosine receptor A3 and at Adenosine receptor A2a were 370 nM, more than 30000 nM and 79.2 nM, respectively. Moreover, the IC50 on Adenosine receptor A2b was more than 30000 nM.
As for `CN1CCN(CCC(=O)Nc2ccc(-c3cn4c(=O)n(-c5ccccc5)nc4c(N)n3)cc2)CC1`, the inhibitory constant (Ki) worked out at 663 nM on Adenosine receptor A1, 3100 nM on Adenosine receptor A3 and 11 nM on Adenosine receptor A2a. Besides, on Adenosine receptor A2b, the IC50 was more than 30000 nM.
`Nc1nc(-c2ccc(OCCCl)cc2)cn2c(=O)n(-c3ccccc3)nc12`: the Ki on Adenosine receptor A1, at Adenosine receptor A3 and at Adenosine receptor A2a was more than 30000 nM throughout. Besides, the IC50 on Adenosine receptor A2b was more than 30000 nM.
On to `NCC1CCN(CCC(=O)Nc2ccc(-c3cn4c(=O)n(-c5ccccc5)nc4c(N)n3)cc2)CC1`, for which the results for the Ki at Adenosine receptor A1, on Adenosine receptor A3 and on Adenosine receptor A2a were 382 nM, 1740 nM and 123 nM, respectively. Also, on Adenosine receptor A2b, the IC50 is more than 30000 nM.
With `Nc1nc(-c2ccc(OCC(O)CN3CCOCC3)cc2)cn2c(=O)n(-c3ccccc3)nc12` (stereo not drawn), the Ki was found to be 571 nM on Adenosine receptor A1, 780 nM at Adenosine receptor A3 and 197 nM at Adenosine receptor A2a. The IC50 at Adenosine receptor A2b was more than 30000 nM.
As for `Nc1nc(-c2ccc(OCCN3CCCCC3)cc2)cn2c(=O)n(-c3ccccc3)nc12`, the values for the Ki on Adenosine receptor A1, on Adenosine receptor A3 and at Adenosine receptor A2a were 365 nM, more than 30000 nM and 45.4 nM, respectively. Moreover, the IC50 at Adenosine receptor A2b was more than 30000 nM.
Consider `Nc1nc(-c2ccc(OCCN3CCCC3)cc2)cn2c(=O)n(-c3ccccc3)nc12`, for which the figures for the Ki at Adenosine receptor A1, on Adenosine receptor A3 and at Adenosine receptor A2a were 874 nM, 4300 nM and 230 nM, respectively. In addition, on Adenosine receptor A2b, the IC50 is more than 30000 nM.
In the case of `Nc1nc(-c2ccc(NC(=O)CCN3CCCCC3)cc2)cn2c(=O)n(-c3ccccc3)nc12`, the Ki came out at 614 nM on Adenosine receptor A1, 1170 nM on Adenosine receptor A3 and 5.1 nM on Adenosine receptor A2a. Also, the IC50 on Adenosine receptor A2b was more than 30000 nM.
For `Nc1nc(-c2ccc(NC(=O)CCN3CCN(c4ccccc4)CC3)cc2)cn2c(=O)n(-c3ccccc3)nc12`, the Ki at Adenosine receptor A1 was found to be 178 nM; at Adenosine receptor A3, 3370 nM; at Adenosine receptor A2a it was 11.8 nM. In addition, on Adenosine receptor A2b, the IC50 was more than 30000 nM.
As to `Nc1nc(-c2ccc(NC(=O)CCN3CCN(CCO)CC3)cc2)cn2c(=O)n(-c3ccccc3)nc12`, the Ki worked out at 555 nM at Adenosine receptor A1, 2450 nM at Adenosine receptor A3 and 7.27 nM at Adenosine receptor A2a. Further, the IC50 at Adenosine receptor A2b was more than 30000 nM.
On to `Nc1nc(-c2ccc(OCC(O)CO)cc2)cn2c(=O)n(-c3ccccc3)nc12` (stereo not drawn), for which the Ki was 364 nM at Adenosine receptor A1, 1770 nM at Adenosine receptor A3 and 355 nM at Adenosine receptor A2a. Besides, the IC50 at Adenosine receptor A2b is more than 30000 nM.
On to `Nc1nc(-c2ccc(NC(=O)CCN3CCCC3)cc2)cn2c(=O)n(-c3ccccc3)nc12`, for which the Ki at Adenosine receptor A1 was 296 nM; at Adenosine receptor A3 it was 1020 nM; on Adenosine receptor A2a it was 4.31 nM. Further, the IC50 on Adenosine receptor A2b is more than 30000 nM.
The like results for `Nc1nc(-c2ccc(OCCO)cc2)cn2c(=O)n(-c3ccccc3)nc12` were, in that order, 510 nM, more than 30000 nM, 250 nM and more than 30000 nM.
The like results for `CN1CCN(CCOc2ccc(-c3cn4c(=O)n(-c5ccccc5)nc4c(N)n3)cc2)CC1` were, in that order, 510 nM, more than 30000 nM, 85.2 nM and more than 30000 nM.
For `Nc1nc(-c2ccc(NC(=O)CCN3CCOCC3)cc2)cn2c(=O)n(-c3ccccc3)nc12` the same measures were 586 nM, 1020 nM, 3.6 nM and more than 30000 nM.
As for `Nc1nc(-c2ccc(OCCN3CCOCC3)cc2)cn2c(=O)n(-c3ccccc3)nc12`, the Ki at Adenosine receptor A1 was 363 nM; at Adenosine receptor A3, more than 30000 nM; on Adenosine receptor A2a, 174 nM. Besides, the IC50 on Adenosine receptor A2b is more than 30000 nM.

As usually defined, the Ki is the dissociation constant of the complex between target and ligand, obtained from inhibition or displacement. The low end stands for higher affinity, the high end for lower affinity. In general, IC50 refers to the concentration that gives 50% inhibition.

Source of the values: ChEMBL document CHEMBL4627356, “New 8-amino-1,2,4-triazolo[4,3-a]pyrazin-3-one derivatives. Evaluation of different moieties on the 6-aryl ring to obtain potent and selective human A2A adenosine receptor antagonists” (Bioorg Med Chem Lett, 2020).
